Patent EP4691482A1, “LONG-ACTING CALCITONIN ANALOG” (Chengdu Aoda Biotechnology Co., Ltd., priority 2023, dated 2024)

Legend:
[1] = biological target: T1, calcitonin receptors (CTR) (Homo sapiens, UniProt P30988); experiment: cAMP determination (HTRF, cAMP Dynamic 2 Kit) in cAMP Hunter HEK293-CT-R Gs cell line; type: cell-based; conditions: relative to Salmon Calcitonin = 100.0; HEK293 CT-R cAMP
T1 construct: expressed in transfected cells; host or cells: cAMP Hunter HEK293-CT-R Gs cell line (HEK293, stably transfected)
T1 sequence (P30988 25-474): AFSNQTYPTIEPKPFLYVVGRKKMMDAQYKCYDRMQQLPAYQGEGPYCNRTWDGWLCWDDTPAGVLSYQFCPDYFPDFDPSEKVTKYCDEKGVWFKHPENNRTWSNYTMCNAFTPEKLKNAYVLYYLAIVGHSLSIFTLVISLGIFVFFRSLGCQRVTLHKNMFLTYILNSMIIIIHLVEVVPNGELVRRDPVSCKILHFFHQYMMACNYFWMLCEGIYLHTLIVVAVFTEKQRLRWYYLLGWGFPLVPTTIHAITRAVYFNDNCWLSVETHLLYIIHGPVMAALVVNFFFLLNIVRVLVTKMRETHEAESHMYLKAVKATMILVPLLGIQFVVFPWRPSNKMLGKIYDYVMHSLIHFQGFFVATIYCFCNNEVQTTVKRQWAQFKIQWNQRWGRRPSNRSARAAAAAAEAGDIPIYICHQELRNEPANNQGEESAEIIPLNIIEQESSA

[2] = in vivo; set-up: species or system Macaca fascicularis; conditions: cynomolgus monkey, sc, 0.1 mg/kg
Experimental: Macaca fascicularis were used as experimental animals. A subcutaneous administration was performed at a dose of 0.1 mg/kg. Venous blood samples were collected before administration (0 h) and at 1 h, 2 h, 3 h, 4 h, 8 h, 12 h, 18 h, 24 h, 48 h, 96 h, 144 h, and 168 h post-administration. Plasma samples were separated by centrifugation. The plasma concentration of the compound in the plasma samples was determined using liquid chromatography-mass spectrometry.

SMILES: CC(C)C[C@H](NC(=O)[C@H](CCCCN)NC(=O)CNC(=O)[C@H](CC(C)C)NC(=O)[C@@H](NC(=O)[C@@H]1CSSC[C@H](N)C(=O)N[C@@H](CO)C(=O)N[C@@H](CC(N)=O)C(=O)N[C@@H](CC(C)C)C(=O)N[C@@H](CO)C(=O)N[C@@H]([C@@H](C)O)C(=O)N1)C(C)C)C(=O)N[C@@H](CO)C(=O)N[C@@H](CCC(N)=O)C(=O)N[C@@H](CCC(=O)O)C(=O)N[C@@H](CC(C)C)C(=O)N[C@@H](Cc1c[nH]cn1)C(=O)N[C@@H](CCCCNC(=O)COCCOCCOCCOCCOCCNC(=O)CC[C@H](NC(=O)CCCCCCCCCCCCCCCCCCC(=O)O)C(=O)O)C(=O)N[C@@H](CC(C)C)C(=O)N[C@@H](CCC(N)=O)C(=O)N[C@H](C(=O)N[C@@H](Cc1ccc(O)cc1)C(=O)N1CCC[C@H]1C(=O)N[C@@H](CCCNC(=N)N)C(=O)N[C@H](C(=O)N[C@@H](CC(N)=O)C(=O)N[C@H](C(=O)NCC(=O)N[C@@H](CO)C(=O)NCC(=O)N[C@H](C(=O)N1CCC[C@H]1C(N)=O)[C@@H](C)O)[C@@H](C)O)[C@@H](C)O)[C@@H](C)O [Compound 5, Cys-Ser-Asn-Leu-Ser-Thr-Cys-Val-Leu-Gly-Lys-Leu-Ser-Gln-Glu-Leu-His-Lys(PEG5CH2CO-γGlu-eicosanedioic acid)-Leu-Gln-Thr-Tyr-Pro-Arg-Thr-Asn-Thr-Gly-Ser-Gly-Thr-Pro-NH2]
- Relative Activity% [1]: 339.3%
- half-life [2]: 53.6 h
